# Measured values from paper PMC11206507, “Unraveling the Impact of Six Pentacyclic Triterpenes Regulating Metabolic Pathways on Lung Carcinoma Cells” (Pharmaceuticals, 2024).
# “Also recorded” adds a separate entry of the source. Where two headings read alike, the source gives them in different places.
# Legend:
# Assay type in all cases: cell-based, human
# NSCLC A549 cells = test: MTS/PMS cell viability, A549; conditions: for TI > 1: summary, MRC5 vs A549; for TI > 1: key: '✔' means induction; '-' means non-induction of any of the tested processes
# Description: A similar procedure was performed to determine the IC50 of the triterpenes in a normal lung fibroblast cell line (MRC5). In brief, the A549 and MRC5 cells were seeded into 96-well plates at a density of 1 × 10^5 cells/mL in supplemented DMEM medium. […] Then, 10 uL of the MTS reagent from the CellTiter 96® Aqueous Non-Radioactive Cell Proliferation Assay (Promega G5421) was added to each well. Then, we incubated the plates at 37 °C and in a 5% CO2 atmosphere for 1 h. After incubation, the absorbance was measured at 492 nm (n = 8) in a microplate reader spectrophotometer (Thermoscientific Multiskan FC). The cell viability was calculated as follows:% Viability = (sample absorbance − sample media absorbance)/(untreated cells’ absorbance − untreated cells’ media absorbance) × 100
# The cell viability data were presented by plotting the values with an average of eight measurements for each treatment (mean ± SD) in at least three independent experiments. The IC50 values were calculated with the GraphPad Prism 9 software (Prism 9; GraphPad by Dotmatics, San Diego, CA, USA) using the dose–response curve.
# caspase 3 = test: Caspase 3 activity assay (Apo-ONE Caspase-3/7); conditions: for Caspase 3 activation (in words): A549, IC50, 24 h, vs untreated cells and CisPt
# Description: The intrinsic apoptosis activity was evaluated by the quantification of caspase 3 enzymatic activity using the Apo-ONE® Homogeneous Caspase-3/7 Assay (Promega G7792). A549 cells were seeded in a concentration of 1 × 10^5 cells/mL into black 96-well plates with a clear bottom. […] After the completion of the incubation, 50 μL of Apo-ONE® Caspase-3/7 Reagent (1:100 rhodamine 110 bis-(N-CBZ-l-aspartyl-l-glutamyl-l-valyl-aspartic acid amide) (Z-DEVD-R110) substrate diluted in lysis buffer) was added to each well. The plate was gently mixed using a plate shaker at 150 rpm for 2 h at room temperature. Then, the fluorescence of each well was measured (Ex/Em = 485/530 nm) in the Tecan® M200 plate reader.
# The caspase 3 activity experiments were performed in triplicate. All data were expressed by plotting the values with an average of three measurements for each treatment condition as the mean ± SD and analyzed with the software GraphPad Prism 9 (San Diego, CA, USA). Statistical analysis was performed using one-way analysis of variance (ANOVA) to compare the mean value of each type of treated cells versus the control (untreated cells). The statistical significance defined by the software for p values was **** < 0.0001, *** from 0.001 to 0.0001, ** from 0.001 to 0.01, * from 0.01 to 0.05, and non-significant (ns) ≥ 0.05.
# PDL1 gene = test: RT-qPCR gene expression of PDL1; conditions: for PDL1 gene expression (in words): A549, IC25 (CisPt 25 μM), 24 h
# Description: (§1) A549 cells were seeded into 6-well plates at a density of 1 × 10^6 cells/mL in supplemented DMEM. The cells were incubated with the triterpenes (IC25) for 24 h. Total RNA was extracted from the cells using the TRIzol reagent (Invitrogen Corporation, Carlsbad, CA, USA) according to the manufacturer’s instructions. The purity and concentration of RNA were assessed using a NanoDrop spectrophotometer (Thermo Fisher Scientific). cDNA was synthesized using the High-Capacity cDNA Reverse Transcription Kit (Applied Biosystems) according to the manufacturer’s instructions.
# (§2) RT-qPCR was performed on a StepOnePlus® Real-Time PCR System (Thermo Fisher Scientific) using TaqMan Gene Expression Assays (Applied Biosystems) for PDL1 (CD274; Assay ID: Hs01125297_m1), ribonucleotide reductase (RR) M1 (Assay ID: Hs01040697_m1), and STAT3 (Assay ID: Hs01047586_g1). Each reaction consisted of 10 ng of cDNA, TaqMan Gene Expression Master Mix (Applied Biosystems), and TaqMan probes. The PCR cycling conditions were as follows: 95 °C for 10 min, followed by 40 cycles of 95 °C for 15 s and 60 °C for 60 s. The relative gene expression levels were calculated using the ΔΔCt method. GAPDH (Assay ID: Hs02758991_g1) was used as the endogenous control for normalization.
# (§3) All RT-qPCR experiments were performed at least in triplicate. All data were expressed by plotting values with an average of four measurements for each treatment condition as the mean ± SD and analyzed with the software GraphPad Prism 9. Statistical analysis was performed using one-way analysis of variance (ANOVA) to compare the mean value of each treated type of cells versus the control (untreated cells). The statistical significance defined by the software for p values was **** < 0.0001, *** from 0.001 to 0.0001, ** from 0.001 to 0.01, * from 0.01 to 0.05, and non-significant (ns) ≥ 0.05.
# A549 cells = test: Mitochondrial ROS production assay (DHE, flow cytometry); conditions: A549, IC25, 24 h; for Amount of mROS, on average of the three named triterpenes, compared to the untreated cells: group average
# Description: We used flow cytometry to analyze several cellular mechanistic pathways in A549 cells after incubation with the triterpenes. In general, the cells were seeded in a 6-well plate at a density of 1 × 10^6 cells/mL and incubated for 24 h in supplemented DMEM. After 24 h, the A549 cells were treated with the triterpenes, following each manufacturer’s protocol. All of the following experiments were performed in a Muse® Cell Analyzer (EMD Millipore Corporation, Temecula, CA). The instrument was calibrated before each assay using the Muse® System Check Kit (Luminex MCH100101, Luminex Corporation). Each assay was run at least in two independent experiments. For each experiment, all samples were analyzed in triplicate in the instrument and the capillary line was washed after each sample run to avoid artifacts. In addition, to address the issue of cell doublets, we used the Muse® Cell Dispersal Reagent (Luminex Corporation) in all experiments. The concentration of the triterpenes in each assay was selected depending on the cellular concentration necessary to generate the gain signal in the instrument. This means that we attempted to select concentrations avoiding excessive cytotoxicity to accurately determine the respective signal from each assay.
# The production of reactive oxygen species (ROS) by mitochondria was determined using the Oxidative Stress Kit (Luminex MCH100111, Luminex Corporation). After the A549 cells were treated with the triterpenes (IC25) for 24 h, the cells were scraped and centrifuged. For ROS, the cell pellet was incubated with dihydroethidium (DHE) dye for 1 h at 37 °C.
# STAT3 gene = test: RT-qPCR gene expression of STAT3; conditions: A549, IC25, 24 h
# Description: as §1, §2, §3
SMILES,TI (NSCLC A549 cells),TI > 1 (NSCLC A549 cells),Caspase 3 activation (in words) (caspase 3),"IC50 (NSCLC A549 cells; Homo sapiens, A549, 24 h, MTS/PMS)",PDL1 gene expression (in words) (PDL1 gene),"PDL1 downregulation (PDL1 gene; summary, NSCLC A549 cells)","TI (NSCLC A549 cells; TI = MRC5 IC50/A549 IC50, >1 means higher selectivity)",mROS production (in words) (A549 cells; vs negative control),"Amount of mROS, on average of the three named triterpenes, compared to the untreated cells (A549 cells)",STAT3 gene expression (in words) (STAT3 gene),"Caspase 3 activation (caspase 3; summary, NSCLC A549 cells)"
"C[C@H]1[C@H](C)CC[C@]2(C(=O)O)CC[C@]3(C)C(=CC[C@@H]4[C@@]5(C)CC[C@H](O)C(C)(C)[C@@H]5CC[C@]43C)[C@H]12 [UrA, ursolic acid]",0.57,-,higher caspase 3 activation than CisPt; also recorded: highest,,,,,,,,
"C=C(C)[C@@H]1CC[C@]2(CO)CC[C@]3(C)[C@H](CC[C@@H]4[C@@]5(C)CC[C@H](O)C(C)(C)[C@@H]5CC[C@]43C)[C@@H]12 [Betu, betulin]",0.73,-,higher caspase 3 activation than CisPt,22 ± 1 µM,did not inhibit,-,,,,,
"C=C(C)[C@@H]1CC[C@]2(C(=O)O)CC[C@]3(C)[C@H](CC[C@@H]4[C@@]5(C)CC[C@H](O)C(C)(C)[C@@H]5CC[C@]43C)[C@@H]12 [BeA, betulinic acid]",1.27,,,,superior in suppressing both genes,,> 1,largest level of mROS,26.2%,superior in suppressing both genes,
"C=C(C)[C@@H]1CC[C@]2(C)CC[C@]3(C)[C@H](CC[C@@H]4[C@@]5(C)CC[C@H](O)C(C)(C)[C@@H]5CC[C@]43C)[C@@H]12 [Lupe, lupeol]",1.26,,,,,,,,26.2%,,-
